Measured values reported in US4205163A, “Tylosin derivatives” (Sanraku-Ocean Co., Ltd., priority 1977, dated 1980).
≈ marks a conversion by molar mass, not a printed value.

What was measured:
Assay in all cases: antimicrobial activity, broth dilution method
Type in all cases: cell-based
[1] = system: Staphylococcus aureus MS-9931; settings: Staphylococcus aureus MS-9931, drug-resistant clinical isolate; for MIC: MS9931, read-out: minimum inhibitory concentration (MIC)
Protocol: (§1) Antimicrobial activity of the new antibiotics according to the present invention was measured on various pathogenic microorganisms by the broth dilution mehtod. Tab. […] The new antibiotics show a similar antimicrobial spectrum to that of tylosin as shown in Tab. 4. All the compounds have an excellent antimicrobial activity mainly on gram-positive bacteria. […] Test microorganisms with an asterisk mark (*) in Tab. 4 are all drug-resistant strains that were clinically isolated. More in detail, Staphylococcus aureus MS-8710 is resistant to tylosin, penicillin, tetracycline, erythromycin and leucomycin. Staphylococcus aureus MS-9931 is resistant to tylosin, penicillin, erythromycin, tetracycline, leucomycin, spiramycin and josamycin. And also Streptococcus piogenes is resistant to tylosin, erythromycin, oleandomycin and leucomycin.

[2] = system: Staphylococcus aureus SMITH; settings: Staphylococcus aureus SMITH, broth dilution; for MIC: Staphylococcus aureus, read-out: minimum inhibitory concentration (MIC)
Protocol: as §1

[3] = system: Staphylococcus aureus MS-9937; settings: Staphylococcus aureus MS-9937, drug-resistant clinical isolate; for MIC: MS9937, read-out: minimum inhibitory concentration (MIC)
Protocol: as §1

[4] = system: Bacillus cereus ATCC 9634; settings: broth dilution; for MIC: Bacillus cereus, ATCC9634, Bacillus cereus ATCC 9634, read-out: minimum inhibitory concentration (MIC); for minimum inhibitory concentration (MIC): Bacillus cereus ATCC 9634
Protocol: as §1

[5] = system: Staphylococcus aureus FDA-209P; settings: Staphylococcus aureus FDA-209P, broth dilution; for MIC: Staphylococcus aureus, FDA209P, read-out: minimum inhibitory concentration (MIC)
Protocol: as §1

Sarcina lutea ATCC 9341 = settings: for MIC: Micrococcus luteus, ATCC9341, Sarcina lutea ATCC 9341, read-out: minimum inhibitory concentration (MIC); for minimum inhibitory concentration (MIC): Sarcina lutea ATCC 9341
Protocol: as §1

[6] = system: Staphylococcus aureus MS-8710; settings: for MIC: Staphylococcus aureus, MS8710, Staphylococcus aureus MS-8710, drug-resistant clinical isolate, read-out: minimum inhibitory concentration (MIC); for minimum inhibitory concentration (MIC): Staphylococcus aureus MS-8710, drug-resistant clinical isolate
Protocol: as §1

[7] = system: Streptococcus pyogenes MH-771; settings: for MIC: Streptococcus pyogenes, MH771, Streptococcus pyogenes MH-771, drug-resistant clinical isolate, read-out: minimum inhibitory concentration (MIC); for minimum inhibitory concentration (MIC): Streptococcus pyogenes MH-771, drug-resistant clinical isolate
Protocol: as §1

Compound	MIC [1] [µg/mL]	MIC [2] [µg/mL]	MIC [3] [µg/mL]	MIC [4] [µg/mL]	MIC [5] [µg/mL]	MIC (Sarcina lutea ATCC 9341) [µg/mL]	MIC [6] [µg/mL]	MIC [7] [µg/mL]	minimum inhibitory concentration (MIC) [1] [µg/mL]	minimum inhibitory concentration (MIC) [2] [µg/mL]	minimum inhibitory concentration (MIC) [3] [µg/mL]	minimum inhibitory concentration (MIC) [4] [µg/mL]	minimum inhibitory concentration (MIC) [5] [µg/mL]	minimum inhibitory concentration (MIC) (Sarcina lutea ATCC 9341) [µg/mL]	minimum inhibitory concentration (MIC) [6] [µg/mL]	minimum inhibitory concentration (MIC) [7] [µg/mL]
CCC1OC(=O)CC(OC(C)=O)C(C)C(OC2OC(C)C(OC3CC(C)(O)C(OC(=O)C(Cc4ccc(OC(C)=O)cc4)OC(C)=O)C(C)O3)C(N(C)C)C2O)C(CC=O)CC(C)C(=O)C=CC(C)=CC1COC1OC(C)C(O)C(OC)C1OC (stereo not drawn) [Compound 28, 3-acetyl-4"-[α-acetoxy-β-(4-acetoxyphenyl)propionyl]tylosin]	50 (≈ 41.4 µM)	1.56 (≈ 1.29 µM)	25 (≈ 20.7 µM)	1.56 (≈ 1.29 µM)	1.56 (≈ 1.29 µM)	0.78 (≈ 0.647 µM)	25 (≈ 20.7 µM)	25 (≈ 20.7 µM)	–	–	–	–	–	–	–	–
CCC1OC(=O)CC(O)C(C)C(OC2OC(C)C(OC3CC(C)(O)C(OC(=O)Cc4cccc5ccccc45)C(C)O3)C(N(C)C)C2O)C(CC=O)CC(C)C(=O)C=CC(C)=CC1COC1OC(C)C(O)C(OC)C1OC (stereo not drawn) [Compound 22, 4"-α-naphthylacetyltylosin]	25 (≈ 23.1 µM)	1.56 (≈ 1.44 µM)	25 (≈ 23.1 µM)	1.56 (≈ 1.44 µM)	1.56 (≈ 1.44 µM)	0.39 (≈ 0.36 µM)	12.5 (≈ 11.5 µM)	50 (≈ 46.1 µM)	–	–	–	–	–	–	–	–
3-acetyl-4"-(1-imidazolyl)propionyltylosin [Compound 33]	–	–	–	–	–	–	–	–	50	1.56	50	1.56	1.56	0.78	25	12.5
CCC1OC(=O)CC(O)C(C)C(OC2OC(C)C(OC3CC(C)(O)C(OC(=O)CSc4cccc(C)c4)C(C)O3)C(N(C)C)C2O)C(CC=O)CC(C)C(=O)C=CC(C)=CC1COC1OC(C)C(O)C(OC)C1OC (stereo not shown) [Compound 36, 4"-(3-methylphenyl)thioacetyltylosin]	50 (≈ 46.3 µM)	0.78 (≈ 0.722 µM)	50 (≈ 46.3 µM)	0.78 (≈ 0.722 µM)	0.78 (≈ 0.722 µM)	0.39 (≈ 0.361 µM)	25 (≈ 23.1 µM)	25 (≈ 23.1 µM)	–	–	–	–	–	–	–	–
CCC1OC(=O)CC(O)C(C)C(OC2OC(C)C(OC3CC(C)(O)C(OC(=O)COc4ccc5ccccc5c4)C(C)O3)C(N(C)C)C2O)C(CC=O)CC(C)C(=O)C=CC(C)=CC1COC1OC(C)C(O)C(OC)C1OC (stereo not drawn) [Compound 47, 4"-β-napthoxyacetyltylosin]	25 (≈ 22.7 µM)	0.78 (≈ 0.709 µM)	25 (≈ 22.7 µM)	0.78 (≈ 0.709 µM)	0.78 (≈ 0.709 µM)	0.19 (≈ 0.173 µM)	25 (≈ 22.7 µM)	12.5 (≈ 11.4 µM)	–	–	–	–	–	–	–	–
4"-thienylacetyltylosin [Compound 30]	–	–	–	–	–	–	–	–	25	0.39	25	0.39	0.39	0.19	12.5	6.25
CCC1OC(=O)CC(O)C(C)C(OC2OC(C)C(OC3CC(C)(O)C(OC(=O)CSc4ccc(C)cc4)C(C)O3)C(N(C)C)C2O)C(CC=O)CC(C)C(=O)C=CC(C)=CC1COC1OC(C)C(O)C(OC)C1OC (stereo not shown) [Compound 35, 4"-(4-methylphenyl)thioacetyltylosin]	25 (≈ 23.1 µM)	1.56 (≈ 1.44 µM)	50 (≈ 46.3 µM)	1.56 (≈ 1.44 µM)	1.56 (≈ 1.44 µM)	0.78 (≈ 0.722 µM)	25 (≈ 23.1 µM)	12.5 (≈ 11.6 µM)	–	–	–	–	–	–	–	–
CCCCCCCC(=O)OC1C(C)OC(OC2C(C)OC(OC3C(CC=O)CC(C)C(=O)C=CC(C)=CC(COC4OC(C)C(O)C(OC)C4OC)C(CC)OC(=O)CC(O)C3C)C(O)C2N(C)C)CC1(C)O (stereo not shown) [Compound 9, 4"-n-caprylyl(or n-octanoyl)tylosin]	25 (≈ 24 µM)	0.78 (≈ 0.748 µM)	25 (≈ 24 µM)	1.56 (≈ 1.5 µM)	0.78 (≈ 0.748 µM)	0.39 (≈ 0.374 µM)	25 (≈ 24 µM)	25 (≈ 24 µM)	–	–	–	–	–	–	–	–
CCC1OC(=O)CC(O)C(C)C(OC2OC(C)C(OC3CC(C)(O)C(O)C(C)O3)C(N(C)C)C2OC(=O)CCl)C(CC=O)CC(C)C(=O)C=CC(C)=CC1COC1OC(C)C(O)C(OC)C1OC (stereo not shown) [2'-monochloroacetyltylosin, reference compound]	200 (≈ 201 µM)	1.56 (≈ 1.57 µM)	200 (≈ 201 µM)	1.56 (≈ 1.57 µM)	1.56 (≈ 1.57 µM)	0.39 (≈ 0.393 µM)	> 200	> 200	–	–	–	–	–	–	–	–
CCC1OC(=O)CC(OC(C)=O)C(C)C(OC2OC(C)C(OC3CC(C)(O)C(OC(=O)C(C)c4ccccc4)C(C)O3)C(N(C)C)C2O)C(CC=O)CC(C)C(=O)C=CC(C)=CC1COC1OC(C)C(O)C(OC)C1OC (stereo not drawn) [Compound 15, 3-acetyl-4"-α-phenylpropionyltylosin]	25 (≈ 22.9 µM)	0.39 (≈ 0.358 µM)	25 (≈ 22.9 µM)	0.78 (≈ 0.715 µM)	0.39 (≈ 0.358 µM)	0.19 (≈ 0.174 µM)	25 (≈ 22.9 µM)	12.5 (≈ 11.5 µM)	–	–	–	–	–	–	–	–
CCC1OC(=O)CC(OC(C)=O)C(C)C(OC2OC(C)C(OC3CC(C)(O)C(OC(=O)Cc4cccnc4)C(C)O3)C(N(C)C)C2O)C(CC=O)CC(C)C(=O)C=CC(C)=CC1COC1OC(C)C(O)C(OC)C1OC (stereo not shown) [Compound 31, 3-acetyl-4"-(3-pyridyl)acetyltylosin]	12.5 (≈ 11.6 µM)	0.39 (≈ 0.362 µM)	12.5 (≈ 11.6 µM)	0.39 (≈ 0.362 µM)	0.39 (≈ 0.362 µM)	0.19 (≈ 0.176 µM)	12.5 (≈ 11.6 µM)	6.25 (≈ 5.8 µM)	–	–	–	–	–	–	–	–
CCC1OC(=O)CC(O)C(C)C(OC2OC(C)C(OC3CC(C)(O)C(O)C(C)O3)C(N(C)C)C2OC(C)=O)C(CC=O)CC(C)C(=O)C=CC(C)=CC1COC1OC(C)C(O)C(OC)C1OC (stereo not shown) [2'-acetyltylosin, reference compound]	200 (≈ 209 µM)	1.56 (≈ 1.63 µM)	200 (≈ 209 µM)	1.56 (≈ 1.63 µM)	1.56 (≈ 1.63 µM)	0.39 (≈ 0.407 µM)	> 200	> 200	–	–	–	–	–	–	–	–
CCC1OC(=O)CC(OC(C)=O)C(C)C(OC2OC(C)C(OC3CC(C)(O)C(OC(=O)C(OC(C)=O)c4ccc(OC(C)=O)cc4)C(C)O3)C(N(C)C)C2O)C(CC=O)CC(C)C(=O)C=CC(C)=CC1COC1OC(C)C(O)C(OC)C1OC (stereo not drawn) [Compound 21, 3-acetyl-4"-[α-acetoxy-(4-acetoxyphenyl)acetyl]tylosin]	50 (≈ 41.9 µM)	0.78 (≈ 0.654 µM)	50 (≈ 41.9 µM)	0.78 (≈ 0.654 µM)	0.78 (≈ 0.654 µM)	0.39 (≈ 0.327 µM)	50 (≈ 41.9 µM)	12.5 (≈ 10.5 µM)	–	–	–	–	–	–	–	–
CCC1OC(=O)CC(O)C(C)C(OC2OC(C)C(OC3CC(C)(O)C(OC(=O)C(C)Oc4ccccc4)C(C)O3)C(N(C)C)C2O)C(CC=O)CC(C)C(=O)C=CC(C)=CC1COC1OC(C)C(O)C(OC)C1OC (stereo not drawn) [Compound 46, 4"-α-phenoxypropionyltylosin]	25 (≈ 23.5 µM)	0.39 (≈ 0.366 µM)	50 (≈ 47 µM)	0.39 (≈ 0.366 µM)	0.78 (≈ 0.733 µM)	0.19 (≈ 0.179 µM)	25 (≈ 23.5 µM)	12.5 (≈ 11.7 µM)	–	–	–	–	–	–	–	–
